Assay results from patent US8128963B2, “Methods for treating ischemic disorders using carbon monoxide” (The Trustees of Columbia University in the City Of New York, priority 1999, dated 2012).
“Also recorded” adds a separate entry of the source.

Tests used:
Protime and APTT in mice = type: in vivo, mouse; settings: 300 μg/kg, n=7
Excerpt: The potency of Factor IXai as an anticoagulant agent stems from the integral role of activated Factor IX in the coagulation cascade.

[1] = tested on: platelet accumulation in ipsilateral hemisphere; experiment: 111Indium-platelet accumulation in stroke; type: in vivo, mouse; settings: 300 μg/kg prior to occlusion, vs vehicle
Description: ^111Indium-platelet studies: Platelet accumulation was determined using ^111Indium labeled platlets, collected and prepared as previously described ^8. Immediately prior to surgery, mice were given 5×10^6 111In-labeled-platelets intravenously; deposition was quantified after 24 hours by as ipsilateral cpm/contralateral cpm.

intracerebral hemorrhage = type: in vivo, mouse
Description: The hemoglobin content of brains subjected to the experimental procedures below was quantified using a spectrophotometric assay as follows. Whole brain tissue was obtained from freshly euthanized control or experimental animals, and each brain was treated individually as follows. Distilled water (250 μl) was added to each brain, followed by homogenization, for 30 sec (Brinkman Instruments, Inc., Westbury, N.Y.), sonification on ice with a pulse ultrasonicator for 1 minute (SmithKline Corporation, Collegeville, Pa.), and centrifugation at 13,000 rpm for 30 minutes (Baxter Scientific Products, Deerfield, Ill.). After collecting the hemoglobin-containing supernatant, 80 μl of Drabkin's reagent (purchased from Sigma Diagnostics, St. Louis, Mo; K3Fe(CN)6 200 mg/L, KCN 50 mg/L, NaHCO3 1 g/L, pH 8.6 ^25) was added to a 20 μl aliquot and allowed to stand for 15 minutes. This reaction converts hemoglobin to cyanomethemoglobin, which has an absorbance peak at 540 nm, and whose concentration can then be assesses by the optical density of the solution at ≈550 nm wavelength ^26. To validate that the measured absorbance following these procedures reflects the amount of hemoglobin, known quantities of bovine erythrocyte hemoglobin (Sigma, St. Louis, Mo.) were analyzed using similar procedures alongside every brain tissue assay. As an additional measure, blood was obtained from control mice by cardiac puncture following anesthesia. Incremental aliquots of this blood were then added to freshly homogenized brain tissue obtained from untreated mice to generate a standard absorbance curve.
Focal cerebral ischemia was produced in animals by transient right middle cerebral artery occlusion using a method previously described in detail ^28,29. Briefly, a heat-blunted 12 or 13 mm 5-0 or 6-0 gauge nylon suture was passed into the right internal carotid artery to the level of the middle cerebral artery. After 45 minutes, the occluding suture was removed to reestablish perfusion. Immediately following removal of the occluding suture, animals received either intravenous tissue plasminogen activator (10 mg/kg in 0.2 ml normal saline solution, Stroke+rt-PA) or normal saline solution (Stroke+Saline) given by dorsal penile vein injection. At 24 hours, brain tissue was harvested immediately after rapid anesthetized decapitation. […] The other half of each brain was immersed in saline for an identical duration, and then subjected to the procedures described above for the spectrophotometric hemoglobin assay.
The degree of ICH was first scored visually by a blinded observer. […] Sections were inspected by a blinded observer and brains were given an ICH score from a graded scale based on maximal hemorrhage diameter seen on any of the sections [ICH score 0, no hemorrhage; 1, <1 mm; 2, 1-2 mm; 3, >2-3 mm; 4, >3 mm]. Slices from each brain were then pooled, homogenized, and then treated according to the procedures described above for the spectrophotometric hemoglobin assay.
Spectrophotometric hemoglobin assay and visual ICH score: ICH was quantified by a spectrophotometric-based assay which we have developed and validated ^11,12. In brief, mouse brains were homogenized, sonicated, centrifuged, and methemoglobin in the supernatants converted (using Drabkin's reagent) to cyanomethemoglobin, the concentration of which was assessed by measuring O.D. at 550 nm against a standard curve generated with known amounts of hemoglobin. […]

[2] = tested on: left circumflex coronary artery occlusion; settings: dogs; cited from earlier work
cross-linked fibrin = experiment: Fibrin immunoblotting in stroke brain; type: in vivo, mouse; settings: 300 μg/kg prior to stroke
Description: Fibrin immunoblotting/immunostaining. The accumulation of fibrin was measured following sacrifice (of fully heparinized animals) using immunoblotting/immunostaining procedures which have been recently described and validated ^9. Because fibrin is extremely insoluble, brain tissue extracts where prepared by plasmin digestion, then applied to a standard SDS-polyacrylamide gel for electrophoresis, followed by immunoblotting using a polyclonal rabbit anti-human antibody prepared to gamma-gamma chain dimers present in cross-linked fibrin which can detect murine fibrin, with relatively little cross-reactivity with fibrinogen ^10. Fibrin accumulation was reported as an ipsilateral to contralateral ratic. In additional experiments, brains were embedded in paraffin, sectioned, and immunostained using the same anti-fibrin antibody.

[3] = tested on: mouse model of cerebral ischemia and reperfusion (stroke); type: in vivo
Description: In stroke and other ischemic disorders, there may be clinical benefit derived by lysing an existing thrombus, but there is also the potentially devastating complication of hemorrhage. In the current experiments, the mouse model of cerebral ischemia and reperfusion (stroke) was used. […]
Murine stroke model. Transient focal cerebral ischemia was induced in mice by intralumenal occlusion of the middle cerebral artery (45 minutes) and reperfusion (22 hrs) as previously reported ^7. Serial measurements of relative cerebral blood flow (CBF) were recorded via laser doppler flowmetry ^7, and infarct volumes (% ipsilateral hemisphere) determined by planimetric/volumetric analysis of triphenyl tetrazolium chloride (TTC)-stained serial cerebral sections ^7.
Preparation of Factor IXai ^13: Factor IXai was prepared by selectively modifying the active site histidine residue on Factor IXa, using dansyl-glu-gly-arg-chloromethylketone. Proplex was applied to a preparative column containing immobilized calcium-dependent monoclonal antibody to Factor IX. […] Purified Factor IXa was reacted with a 100-fold molar excess of dansyl-glu-gly-arg chloromethylketone, and the mixture dialyzed. […] IXai was subsequently frozen into aliquots at −80° C. until the time of use. For those experiments in which IXai was used, it was given as a single intravenous bolus at the indicated times and at the indicated doses.

Factor IXa = molecular target: T1, Factor IXa (Homo sapiens, UniProt P00740); experiment: Procoagulant activity of the prepared Factor IXai; type: biochemical; settings: final product
T1 construct: made in house
T1 sequence (P00740 227-461 limits assumed): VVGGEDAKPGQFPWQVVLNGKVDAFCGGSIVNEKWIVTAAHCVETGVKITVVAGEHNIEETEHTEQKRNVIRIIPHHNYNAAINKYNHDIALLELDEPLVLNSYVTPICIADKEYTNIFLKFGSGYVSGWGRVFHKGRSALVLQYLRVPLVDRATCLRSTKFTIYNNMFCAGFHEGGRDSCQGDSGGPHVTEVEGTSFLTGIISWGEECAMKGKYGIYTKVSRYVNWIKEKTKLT
T1 sequence (P00740 47-191 partner limits assumed): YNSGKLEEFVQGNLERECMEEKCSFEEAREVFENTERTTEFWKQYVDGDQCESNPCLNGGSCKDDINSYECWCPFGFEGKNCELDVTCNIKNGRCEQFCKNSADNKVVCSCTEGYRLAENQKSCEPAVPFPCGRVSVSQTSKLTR
Description: Preparation of Factor IXai ^13: Factor IXai was prepared by selectively modifying the active site histidine residue on Factor IXa, using dansyl-glu-gly-arg-chloromethylketone. Proplex was applied to a preparative column containing immobilized calcium-dependent monoclonal antibody to Factor IX. The column was washed, eluted with EDTA-containing buffer, and Factor IX in the eluate (confirmed as a single band on SDS-PAGE) was then activated by applying Factor XIa (incubating in the presence of CaCl2). Purified Factor IXa was reacted with a 100-fold molar excess of dansyl-glu-gly-arg chloromethylketone, and the mixture dialyzed. […] This material (Factor IXai) was then used for experiments following filtration (0.2 μm) and chromatography on DeToxi-gel columns, to remove any trace endotoxin contamination (in sample aliquots, there was no detectable lipopolysaccharide). IXai was subsequently frozen into aliquots at −80° C. until the time of use. For those experiments in which IXai was used, it was given as a single intravenous bolus at the indicated times and at the indicated doses.

mouse model of stroke = experiment: Mouse model of stroke, thrombolytic versus P-selectin antagonist; settings: in vivo
Excerpt: The present invention provides for treatment of ischemic disorders by inhibiting the ability of the neutrophil, monocyte or other white blood cell to adhere properly. This may be accomplished removing the counter ligand, such as CD18. […] The endothelial cells on the surface of the vessels in the subject may also be a target for treatment. […] The present invention may be used in conjunction with a thrombolytic therapy to increase efficacy of such therapy or to enable lower doses of such therapy to be administered to the subject so as to reduce side effects of the thrombolytic therapy.

acute ischemic stroke = settings: within 7 hours of stroke onset; cited from earlier work
stroke = settings: within 2 hours of stroke; cited from earlier work
[4] = 300 μg/kg i.v. just prior to surgery, 24 hours
[5] = Table II, Experimental group mean

Substance: Factor IXai: Factor IXa with active site histidine modified by dansyl-glu-gly-arg-chloromethylketone; competitive inhibitor of Factor IXa
- APTT (Protime and APTT in mice): 79.9±8.9
- PT (protime) (Protime and APTT in mice): 13.4±0.7
- accumulation of radiolabelled platelets in the ipsilateral hemisphere [1]: significant reduction
- apparent intracerebral hemorrhage (intracerebral hemorrhage; [4]): free of apparent intracerebral hemorrhage
- ICH (spectrophotometric assay, corroborated by visual score) (intracerebral hemorrhage; highest dose tested, 1200 μg/kg): increase in ICH
- ICH (spectrophotometric hemoglobin assay) (intracerebral hemorrhage; mouse, in vivo): no significant increase in ICH
- activated partial thromboplastin time (APTT) [2]: did not prolong
- progressive coronary artery occlusion after electric current [2]: effective at preventing progressive coronary artery occlusion
- ipsilateral accumulation of fibrin (immunoblot) (cross-linked fibrin): no apparent increase
- cerebral infarction volume ([3]; 300 μg/kg given after MCA occlusion, following removal of the occluding suture, vs vehicle): significantly reduce cerebral infarction volumes
- cerebral infarct volume ([3]; 300 μg/kg i.v. immediately prior to stroke, vs controls): smaller infarct volumes; also recorded: reduce cerebral infarct volumes
- mortality [3, 4]: reduced mortality
- neurological deficits [3, 4]: less neurological deficits
- inf vol [3, 5]: 3.47
- occ dop 1 [3, 5]: 0.16
- occ dop 2 [3, 5]: 0.43
- reper dop [3, 5]: 0.53
- sac dop ([3]; Table II, Experimental group mean, at sacrifice): 0.75
- dopp ([3]; Table II, Experimental group mean, baseline relative doppler flow): 1.04
- grade ([3]; Table II, Experimental group mean, neurological grade): 1.67
- optimal dose (infarct volume dose-response) ([3]; doses 300, 600, 1200 μg/kg immediately prior to stroke): 0.6 mg/kg
- I/C Ratio ([3]; mouse, in vivo): 1.08
- cerebral blood flow / perfusion at 24 hours ([3]; mouse, in vivo, iv): improved cerebral perfusion; also recorded: significant increase in CBF
- procoagulant activity (Factor IXa): devoid of procoagulant activity

Substance: rt-PA: recombinant human tissue plasminogen activator, Genentech
- increase of OD vs physiological saline solution (intracerebral hemorrhage; i.v. after reperfusion, 10 mg/kg): 1.8 fold
- visual ICH score (intracerebral hemorrhage; stroke model, rt-PA after reperfusion): increase in the visual ICH score
- hemorrhaging (mouse model of stroke): some visible hemorrhaging
- stroke disorder (mouse model of stroke): improvement of the stroke disorder
- rate of hemorrhagic conversion (acute ischemic stroke): 7-20%
- reduction of infarct size (stroke): up to 77%
